Activity calls are given as the source filed them. No cut-off for these calls is given here.

The species entered for data set [1] is Mus musculus. Kind of data set: Immunosuppressive activity in OT2 mouse CD4-positive T cells derived OVA(323 to 339)-activated Th-differentiating media cultured Th1 cells assessed as reduction in pDBU/ionomycin-stimulated IFNgamma production up to 10 uM treated last 2 days of 5 days differentiation followed by pDBU/ionomycin stimulation on day 5 measured after 4 hrs by anti-mouse IFNgamma-Pacific Blue/IL-2-APC staining based flow cytometry. In kind it is functional. (Flow cytometry measures light scatter and fluorescence of single cells or particles in a stream.)

The species entered for data set [2] is Mus musculus. The data set is described as follows: Immunosuppressive activity in OT2 mouse CD4-positive T cells derived OVA(323 to 339)-activated Th-differentiating media cultured Th17 cells assessed as reduction in pDBU/ionomycin-stimulated […] production up to 10 uM treated last 2 days of 5 days differentiation followed by pDBU/ionomycin stimulation on day 5 measured after 4 hrs by anti-mouse IL17A-APC staining based flow cytometry. In kind it is functional.

Data set [3] is described as follows: Cytotoxicity against OT2 mouse CD4-positive T cells assessed as cell viability at 100 nM measured after 48 hrs by live/dead viability staining based flow cytometry (reference value: 57.2%). The following applies: read-out: Activity.
A short description of data set [4]: Immunosuppressive activity in OT2 mouse CD4-positive T cells derived OVA(323 to 339)-activated Th-differentiating media cultured Th1 cells assessed as reduction in pDBU/ionomycin-stimulated IFNgamma production at late stage by measuring INFgamma level at 10 uM treated last 2 days of 5 days differentiation followed by pDBU/ionomycin stimulation on day 5 measured after 4 hrs by anti-mouse IFNgamma-Pacific Blue/IL-2-APC staining based flow cytometry (reference value: 4.34%). In kind it is functional. Further details: scale not given: the % may be the effect or the level left.

Data set [5] is described as follows: Immunosuppressive activity in OT2 mouse CD4-positive T cells derived OVA(323 to 339)-activated Th-differentiating media cultured Th17 cells assessed as reduction in pDBU/ionomycin-stimulated 1L17A production by measuring IL17A level at 100 nM treated last 2 days of 5 days differentiation followed by pDBU/ionomycin stimulation on day 5 measured after 4 hrs by anti-mouse IL17A-APC staining based flow cytometry (reference value: 1.44%). In kind it is functional. Further details: scale not given: the % may be the effect or the level left.

Data set [6] is described as follows: Immunosuppressive activity in OT2 mouse CD4-positive T cells derived OVA(323 to 339)-activated Th-differentiating media cultured Th1 cells assessed as reduction in pDBU/ionomycin-stimulated IFNgamma production at early stage by measuring INFgamma level at 10 uM treated last 2 days of 5 days differentiation followed by pDBU/ionomycin stimulation on day 5 measured after 4 hrs by anti-mouse IFNgamma-Pacific Blue/IL-2-APC staining based flow cytometry (reference value: 57.3%). In kind it is functional. The arrangement: scale not given: the % may be the effect or the level left.

For data set [7], the species on record is Mus musculus. Kind of data set: Immunosuppressive activity in OT2 mouse CD4-positive T cells derived OVA(323 to 339)-activated Th-differentiating media cultured Th1 cells assessed as reduction in pDBU/ionomycin-stimulated IFNgamma production treated last 2 days of 5 days differentiation followed by pDBU/ionomycin stimulation on day 5 measured after 4 hrs by anti-mouse IFNgamma-Pacific Blue/IL-2-APC staining based flow cytometry. In kind it is functional.

The nature of data set [8]: Cytotoxicity against OT2 mouse CD4-positive T cells assessed as cell viability at 10 uM measured after 48 hrs by live/dead viability staining based flow cytometry (reference value: 57.2%). The following applies: read-out: Activity.
The nature of data set [9]: Immunosuppressive activity in OT2 mouse CD4-positive T cells derived OVA(323 to 339)-activated Th-differentiating media cultured Th17 cells assessed as reduction in pDBU/ionomycin-stimulated 1L17A production by measuring IL17A level at 10 uM treated last 2 days of 5 days differentiation followed by pDBU/ionomycin stimulation on day 5 measured after 4 hrs by anti-mouse IL17A-APC staining based flow cytometry (reference value: 1.44%). In kind it is functional. Further details: scale not given: the % may be the effect or the level left.

A short description of data set [10]: Cytotoxicity against OT1 mouse CD8-positive T cells assessed as cell viability at 10 uM measured after 48 hrs by live/dead viability staining based flow cytometry (reference value: 39.5%). The conditions noted are these: read-out: Activity.
Data set [11] can be described thus: Immunosuppressive activity in OT2 mouse CD4-positive T cells derived OVA(323 to 339)-activated Th-differentiating media cultured Th1 cells assessed as reduction in pDBU/ionomycin-stimulated IFNgamma production at late stage by measuring INFgamma level at 100 nM treated last 2 days of 5 days differentiation followed by pDBU/ionomycin stimulation on day 5 measured after 4 hrs by anti-mouse IFNgamma-Pacific Blue/IL-2-APC staining based flow cytometry (reference value: 4.34%). In kind it is functional. Further details: scale not given: the % may be the effect or the level left.

A short description of data set [12]: Cytotoxicity against OT1 mouse CD8-positive T cells assessed as cell viability at 100 nM measured after 48 hrs by live/dead viability staining based flow cytometry (reference value: 39.5%). The following applies: read-out: Activity.
The nature of data set [13]: Immunosuppressive activity in OT2 mouse CD4-positive T cells derived OVA(323 to 339)-activated Th-differentiating media cultured Th1 cells assessed as reduction in pDBU/ionomycin-stimulated IFNgamma production at early stage by measuring INFgamma level at 100 nM treated last 2 days of 5 days differentiation followed by pDBU/ionomycin stimulation on day 5 measured after 4 hrs by anti-mouse IFNgamma-Pacific Blue/IL-2-APC staining based flow cytometry (reference value: 57.3%). The arrangement: scale not given: the % may be the effect or the level left. In kind it is functional.

Data set [14] has as its system Mus musculus. Kind of data set: Immunosuppressive activity in MOG/CFA/Ptx-induced C57B/6 mouse model of experimental autoimmune encephalitis assessed as change in granulocytic myeloid-derived suppressor cell composition at 4 umol, ip administered on day 4 and 6 starting from 2 days post-disease induction and measured on day 7 post-last disease induction by immunostaining-based flow cytometry. In kind it is functional, organism-based.

The test system of data set [15] is Mus musculus. Kind of data set: Immunosuppressive activity in MOG/CFA/Ptx-induced C57B/6 mouse model of experimental autoimmune encephalitis assessed as decrease in clinical symptoms at 4 umol, ip administered on day 4, 6, and 8 starting from 2 days post-disease induction and measured daily up to 50 days. In kind it is functional, organism-based.
Data set [16] can be described thus: Toxicity in MOG/CFA/Ptx-induced C57B/6 mouse model of experimental autoimmune encephalitis assessed as adverse changes at 4 umol, ip administered on day 4, 6, and 8 starting from 2 days post-disease induction and measured up to 50 days. In kind it is organism-based. The conditions noted are these: in vivo.
For data set [17], the system named is Mus musculus. The data set is described as follows: Immunosuppressive activity in MOG/CFA/Ptx-induced C57B/6 mouse model of experimental autoimmune encephalitis assessed as macrophage cells at 4 umol, ip administered on day 4 and 6 starting from 2 days post-disease induction and measured on day 7 post-last disease induction by immunostaining-based flow cytometry (reference value: 10.5%). In kind it is functional.

The subject of data set [18] is Mus musculus. The data set is described as follows: Immunosuppressive activity in MOG/CFA/Ptx-induced C57B/6 mouse model of experimental autoimmune encephalitis assessed as granulocytic myeloid-derived suppressor cells at 4 umol, ip administered on day 4 and 6 starting from 2 days post-disease induction and measured on day 7 post-last disease induction by immunostaining-based flow cytometry (reference value: 28.1%). In kind it is functional.

Data set [19] concerns Mus musculus. Kind of data set: Immunosuppressive activity in MOG/CFA/Ptx-induced C57B/6 mouse model of experimental autoimmune encephalitis assessed as change in macrophage composition at 4 umol, ip administered on day 4 and 6 starting from 2 days post-disease induction and measured on day 7 post-last disease induction by immunostaining-based flow cytometry. In kind it is functional, organism-based.

For data set [20], the system named is Mus musculus. Kind of data set: Immunosuppressive activity in MOG/CFA/Ptx-induced C57B/6 mouse model of experimental autoimmune encephalitis assessed as time of disease onset at 4 umol, ip administered on day 4, 6, and 8 starting from 2 days post-disease induction and measured daily up to 50 days. In kind it is functional.
In data set [21] the test system is Mus musculus. Kind of data set: Immunosuppressive activity in MOG/CFA/Ptx-induced C57B/6 mouse model of experimental autoimmune encephalitis assessed as change in dendritic cell composition at 4 umol, ip administered on day 4 and 6 starting from 2 days post-disease induction and measured on day 7 post-last disease induction by immunostaining-based flow cytometry. In kind it is functional, organism-based.

The test system of data set [22] is Mus musculus. The data set is described as follows: Immunosuppressive activity in MOG/CFA/Ptx-induced C57B/6 mouse model of experimental autoimmune encephalitis assessed as change in neutrophil composition at 4 umol, ip administered on day 4 and 6 starting from 2 days post-disease induction and measured on day 7 post-last disease induction by immunostaining-based flow cytometry. In kind it is functional, organism-based.

Data set [23] has as its system Mus musculus. The data set is described as follows: Immunosuppressive activity in MOG/CFA/Ptx-induced C57B/6 mouse model of experimental autoimmune encephalitis assessed as change in T cell composition at 4 umol, ip administered on day 4 and 6 starting from 2 days post-disease induction and measured on day 7 post-last disease induction by immunostaining-based flow cytometry. In kind it is functional, organism-based.

Data set [24] has as its system Mus musculus. Kind of data set: Immunosuppressive activity in MOG/CFA/Ptx-induced C57B/6 mouse model of experimental autoimmune encephalitis assessed as live cells at 4 umol, ip administered on day 4 and 6 starting from 2 days post-disease induction and measured on day 7 post-last disease induction by live/dead staining-based flow cytometry (reference value: 87.5%). In kind it is functional.

Data set [25] relates to Mus musculus. The data set is described as follows: Immunosuppressive activity in MOG/CFA/Ptx-induced C57B/6 mouse model of experimental autoimmune encephalitis assessed as CD11b+ F4/80+ cells at 4 umol, ip administered on day 4 and 6 starting from 2 days post-disease induction and measured on day 7 post-last disease induction by immunostaining-based flow cytometry (reference value: 15%). In kind it is functional.

Data set [26] relates to Mus musculus. The data set is described as follows: Immunosuppressive activity in MOG/CFA/Ptx-induced C57B/6 mouse model of experimental autoimmune encephalitis assessed as change in regulatory T cell composition at 4 umol, ip administered on day 4 and 6 starting from 2 days post-disease induction and measured on day 7 post-last disease induction by immunostaining-based flow cytometry. In kind it is functional, organism-based.

The test system of data set [27] is Mus musculus. Kind of data set: Immunosuppressive activity in MOG/CFA/Ptx-induced C57B/6 mouse model of experimental autoimmune encephalitis assessed as inflammatory neutrophil cells at 4 umol, ip administered on day 4 and 6 starting from 2 days post-disease induction and measured on day 7 post-last disease induction by immunostaining-based flow cytometry (reference value: 35.2%). In kind it is functional.

In the case of `Cc1oc(=O)c(C[C@H]2CCC[C@H]3CCCC[C@@]32C)c(O)c1C`, the result in the data set listed under Mus musculus [1] and in the data set listed under Mus musculus [2] was Active.

On to `C=C1CC[C@H]2[C@]3(C)C[C@@H](C=C(C)C)O[C@H]3CC[C@]2(C)[C@@H]1Cc1c(O)c(C)c(C)oc1=O` [SUBGLUTINOL A], for which the viability at 48 h, 0.1 µM in data set [3] was 46%; in data set [12], 14.5%. The Activity in data set [4] is 0%; in data set [5] it was 0.017%; in [6], 1.54%; in the data set listed under Mus musculus [7], “Dose-dependent effect”; in data set [9], 0.064%; in data set [11] it was 0%. In [13], the Activity was found to be 0.84%. For the same compound, the viability at 48 h, 10 µM in [8] worked out at 24.4%; in data set [10], 7.19%.

For the compound `CC[C@@H]1C[C@@]2(C)[C@@H]3CCC[C@H](Cc4c(O)c(C)c(C)oc4=O)[C@@]3(C)CC[C@@H]2O1`, the outcome in the data set filed under Mus musculus [1] and in the data set filed under Mus musculus [2] was Active.

As to `CC(C)=CC1Cc2c(ccc3c(Cc4c(O)c(C)c(C)oc4=O)cccc23)O1` (stereo not given), the result in the data set filed under Mus musculus [1] and in the data set filed under Mus musculus [2] was Active.

For the compound `CC[C@@H]1C[C@@]2(C)[C@@H]3CCC[C@@H](Cc4c(O)c(C)c(C)oc4=O)[C@@]3(C)CC[C@@H]2O1`, the outcome in the data set filed under Mus musculus [1] and in the data set listed under Mus musculus [2] was Active.

With `Cc1oc(=O)c(C[C@@H]2CCC[C@H]3CCCC[C@@]32C)c(O)c1C`, the values for the viability at 48 h, 0.1 µM in data set [3] and in [12] were 60.6% and 42.6%, respectively. In addition, the outcome in the data set with Mus musculus [14], in the data set on Mus musculus [15], with Mus musculus [19], with Mus musculus [21], in the data set with Mus musculus [22] and with Mus musculus [23] was inactive. Moreover, the outcome in the data set with Mus musculus [26] was inactive. In addition, the Activity in data set [4] is 0%; in [5], 1.33%; in data set [6] it was 0.47%; in data set [16] it was “Non-Toxic”; with Mus musculus [17], 4%; in the data set on Mus musculus [18] it was 2.41%. In addition, the Activity in data set [9] was determined as 2.01%; in data set [11], 1.03%; in data set [13], 18.7%; in the data set on Mus musculus [24], 88.8%; in the data set on Mus musculus [25], 11%; in the data set on Mus musculus [27], 74.7%. In addition, the viability at 48 h, 10 µM in data set [8] came to 41.5%; in data set [10], 8.85%. For the same compound, in the data set with Mus musculus [20], the Time stood at 15 days.

With `C=C1CC[C@H]2[C@]3(C)C[C@@H](C=C(C)C)O[C@H]3CC[C@]2(C)[C@@H]1Cc1ccccc1`, the result in the data set filed under Mus musculus [1] and in the data set filed under Mus musculus [2] was Active.

Source of the values: ChEMBL document CHEMBL4376842, “Synthesis and Biological Evaluation of Subglutinol Analogs for Immunomodulatory Agents” (J Med Chem, 2020).
